These results are taken from paper PMC4660440 (Scientific Reports, 2015).

By IC50 is commonly meant the concentration at which inhibition is half-maximal. By GI50 is commonly meant the concentration at which growth is held to half of that of the control.

Like-named read-outs stand apart in the source and are kept apart here.

Data set [1] deals with HeLa cells. The experiment in a line: Cell cycle analysis by flow cytometry (PI). The format is cell-based. The conditions noted are these: for Effect on HeLa cell cycle: 0.1, 1.0, 5.0 μM, 6, 12, 24, 48 h; for Ratio of cell cycle arrest (of total cells): 0.1 μM, 6, 12, 24 and 48 h; for Total cell cycle arrest percentage (right peak of histogram): 48 h. As to the method:
The HeLa cell line was used for cell cycle analysis. Progression through the cell cycle was assessed by flow cytometry DNA determination with Propidium Iodide (PI). […] Flow cytometric analysis was performed using a BD accur C6 flow cytometer. Analysis was with Mod FIT software.
In general terms: In flow cytometry, cells or beads pass a laser one at a time.

Data set [2] is described as follows: MTT cytotoxicity assay, normal hepatic cell line HL-7702. It counts as cell-based. Conditions: HL-7702 normal hepatic cells, human normal hepatic immortal cell line, drug exposure 48 h, mean ± SD (n = 3), read-out: Cytotoxic activity (IC50) HL-7702. On the procedure:
(§1) HeLa, BGC823, A-549, MCF-7 and HT-7702 cell lines were obtained from the ATCC. […] Tumor cells (3500–13,000) were seeded into 96-well microtest plates in 100 μL of culture medium per well, incubated for 48 h in the presence or absence of test compounds (8 different concentrations ranging from 100 to 0.01 μg/mL). For quantitative estimation of cytotoxicity, the (MTT) method was used, essentially performed as described previously. Briefly, cells were washed twice with PBS, fixed for 15 min in 1% glutaraldehyde solution, rinsed twice in PBS, and stained in 0.5% MTT solution for 4 h at 37 °C. […] The initial seeding densities varied among the cell lines to ensure a final absorbance reading in control (untreated) cultures within the range of 0.6–0.8 A492 units. Drug exposure was carried out for 2 days, and the IC50 value, i.e., the drug concentration that decreased the absorbance by 50%, was extrapolated from dose-response data. Each test was performed in triplicate, and the absorbance readings between the triplicates varied by no more than 10%.
(Tetrazolium assays rely on reduction of a dye to a coloured formazan, in cell work by metabolically active cells.)

Another data set deals with topoisomerase II. The experiment in a line: kDNA decatenation assay. It counts as biochemical. The conditions noted are these: 100 μM. As to the method: The decatenation of kDNA was assayed according to TopoGen protocol in order to determine topoisomerase II activity. The substrate kDNA (200 ng) and 100 μM drugs were combined in assay buffer and incubated for 10 min on ice. Next, 1 U of topoisomerase II was added and the reaction was allowed to proceed for 15 min at 37 °C. The reaction was quenched via the addition of loading buffer (1% sarkosyl, 0.025% bromophenol blue, and 5% glycerol) and was then analyzed by electrophoresis on a 1% agarose gel in TBE buffer for 30 min at 130 V. The gel was stained with SYBR Green I (Molecular Probes) for 30 min and was visualized under UV illumination and photographed on a Tanon Imager.

Data set [3] concerns BimEL, ATR, caspase 3, caspase 8, caspase 9, PARP in HeLa cells. The experiment in a line: Western blot analysis of apoptosis proteins. It counts as cell-based. Conditions: 24 h treatment. As to the method:
For electrophoresis, the proteins were separated by sodium dodecyl sulfate–polyacrylamide gel electro-phoresis (SDS–PAGE). The proteins were then transferred to a nitrocellulose membrane, which was blocked with 5% skimmed milk in phosphate buffered saline Tween-20 (PBST). A specific primary antibody was added to bind the target proteins for either 1 h at room temperature or overnight at 4 °C. A horseradish peroxidase (HRP) conjugated secondary antibody was added to the membrane after the primary antibody was washed off. All signals were detected after the HRP was activated by enhanced chemiluminescence. The band intensities of Western results were quantitated with the Image Quant program (Molecular Dynamics Inc.), analyzed and graphed. The untreated controls and the etoposideinduced activation of signaling molecules were taken as 0% and 100%, respectively. Statistic analysis was performed with the uni-polar, paired Student t-test. Data were considered significant when P value was less than 0.05.

Another data set deals with MCF-7. The experiment in a line: MTT cytotoxicity assay, MCF-7. It counts as cell-based. The conditions noted are these: mean ± SD (n = 3), read-out: Cytotoxic activity (IC50) MCF-7. As to the method: as §1
For a further data set, the system named is BGC-823. The experiment in a line: MTT cytotoxicity assay, BGC-823. It counts as cell-based. Conditions: mean ± SD (n = 3), read-out: Cytotoxic activity (IC50) BGC-823. On the procedure:
as §1

Another data set relates to tubulin. The experiment in a line: Tubulin assembly centrifugation assay in vitro. The format is biochemical. Conditions: for Inhibition of microtubule polymerization compared with colchicine: colchicine as positive control. On the procedure:
Ligands were dissolved in DMSO at 20 mM and kept at −80 °C. Work solutions were done in DMSO and kept at −20 °C. The 50% inhibitory ligand concentration of tubulin assembly was determined with a centrifugation assay. Tubulin was equilibrated prior to use in 3.4 M glycerol, 1 mM EGTA, 0.1 mM GTP, pH 7.0, buffer through a 25 cm × 0.9 cm Sephadex G-25 column. Aggregates were removed by a centrifugation at 90000 g × 10 min in a TLA 120 rotor at 4 °C in an Optima TLX centrifuge. Tubulin concentration was determined as described by Andreu^42. Tubulin was kept at 4 °C, and 0.9 mM GTP and 6 mM MgCl2 were added to the sample. The solution was distributed in 200 μL polycarbonate tubes for the TL100 rotor. Growing concentrations of the ligands ranging from 0 to 25 μM were added to the samples (DMSO content of the samples, 2.5%), which were incubated for 30 min at 37 °C. Microtubules were separated from unassembled tubulin by a centrifugation at 90000 g × 10 min in a TLA100 rotor at 37 °C in an Optima TLX centrifuge. The supernatant containing unassembled tubulin was carefully collected and the microtubule pellet resuspended in 10 mM sodium phosphate buffer, pH 7.0, containing 1% SDS. Both supernatants and pellets were diluted 1:5 in the same buffer, and tubulin concentrations were measured fluorometrically (λexc = 280; λems = 323) using tubulin standards calibrated spectrophotometrically. The 50% inhibitory ligand concentration of tubulin assembly was determined with a centrifugation assay that measured the decrease in the concentrations of microtubules assembled in the presence of different concentrations of the compound.

Data set [4] has as its system HeLa cells. The experiment in a line: Annexin V-FITC/PI apoptosis assay. Conditions: 0.1 μM, 6, 12, 24 and 48 h.
Description: The HeLa cell line was used for cell apoptosis. Cells (20000 per mL) were incubated with several concentrations of the compounds or drugs for 6–48 h, and incubated in DMEM medium supplemented with 12% fetal calf serum (FCS), 2 mM L -glutamine, and 100 mg/L penicillin G and 100 mg/L streptomycin at 37 °C and 5% CO2. The cells were washed with PBS twice, centrifuged at 206 g for 5 min, and 5–10[5] cells were collected. Binding buffer suspension (500 μL) was added to the cells, and then 5 μL of the FITC-Annexin V mix was added. Next, 10 μL of the PI mix was added, and the suspension was mixed and kept at room temperature for 30 min in the dark. Analysis was with a BD accur C6 flow cytometer.
Data set [5] deals with microtubules in HeLa cells. The experiment in a line: Immunofluorescence of cellular microtubules. The format is cell-based. Conditions: for Cellular depolymerization of microtubules: 12 and 24 h, compared with negative control 0.1% DMSO; for Appearance of microtubules after treatment: immunofluorescence. As to the method:
Cells (20000 per mL) were plated a onto 6-well tissue culture plates containing 12 mm round coverslips, cultured overnight, and then treated with different drugs at […] concentrations or drug vehicle (0.1% DMSO) for 12 h and 24 h. Attached cells were permeabilized. Cytoskeletons were incubated with α-tubulin, washed twice, and incubated with FITC goat anti-mouse immunoglobulins. The coverslips were washed, and 1 μg/mL DAPI to stain chromatin was added. The mixture was incubated for 30 min. After the samples were washed, they were examined and photographed using an Olympus epifluorescence microscope. The images were recorded with a Perkin Elmer camera.

The subject of the next data set is A549. The experiment in a line: MTT cytotoxicity assay, A549. The format is cell-based. Conditions: mean ± SD (n = 3), read-out: Cytotoxic activity (IC50) A549. On the procedure: as §1
The subject of the next data set is HeLa. The experiment in a line: MTT cytotoxicity assay, HeLa. It counts as cell-based. The conditions noted are these: drug exposure 48 h, mean ± SD (n = 3), read-out: Cytotoxic activity (IC50) HeLa. As to the method: as §1
Another data set concerns HL-7702. The experiment in a line: MTT cytotoxicity assay, normal hepatic cell line HL-7702. It counts as cell-based. The conditions noted are these: human normal hepatic immortal cell line, drug exposure 48 h, mean ± SD (n = 3), read-out: Cytotoxic activity (IC50) HL-7702. On the procedure:
as §1

The mark [6] stands for this setting: 5 μM, untreated control 0%, etoposide-induced activation 100%.
Setting [7] is: Homo sapiens, MCF7, drug exposure 48 h.
Where [8] appears, read: Homo sapiens, BGC-823, drug exposure 48 h.

With `COc1ccc(N[C@@H]2c3cc4c(cc3[C@@H](c3cc(OC)c(O)c(OC)c3)[C@H]3C(=O)OC[C@@H]32)OCO4)cc1Br` [Compound 17′, 4β-NH-(3-bromide-4-methoxyaniline)-4-deoxy-4′-demethylepipodophyllotoxin], in the data set on HeLa cells [1], the “Effect on HeLa cell cycle” value is on record as “arrested at the G2/M phase”. For the same compound, in data set [2], the IC50 at 48 h worked out at 91.8 ± 1.57 µM. Besides, the “Inhibition of the catalytic activity of Topo II (kDNA decatenation)” value with topoisomerase II was “completely inhibited”. In [3] (setting [6]), the “Extent of compound-induced ATR” value was determined as 26%, the “Extent of compound-induced PARP” value is 52%, the “Extent of compound-induced caspase 3” value turned out to be 43% and the “Extent of compound-induced caspase 9” value came out at 34%. Also, the IC50 in the data set with MCF-7 (setting [7]) is 6.51 ± 0.37 µM. Further, the IC50 in the data set with BGC-823 (setting [8]) worked out at 5.63 ± 0.12 µM.

As to `COc1ccc(N[C@@H]2c3cc4c(cc3[C@@H](c3cc(OC)c(OC)c(OC)c3)[C@H]3C(=O)OC[C@@H]32)OCO4)cc1Cl` [Compound 18, 4β-NH-(3-chloride-4-methoxyaniline)-4-deoxy-podophyllotoxin], the “Effect on HeLa cell cycle” value in the data set on HeLa cells [1] is reported as “arrested at the G2/M phase”. Besides, in the data set on HeLa cells [1] (HeLa), the “Ratio of cell cycle arrest (of total cells)” value was “less than 10%”. Besides, the “Total cell cycle arrest percentage (right peak of histogram)” value in the data set on HeLa cells [1] (HeLa, 5.0 μM) is 94.4%. Moreover, the IC50 at 48 h in data set [2] is 79 ± 2.33 µM. Besides, the “Inhibition of microtubule polymerization compared with colchicine” value in the data set on tubulin was “effects higher than colchicine”. In addition, in the data set on HeLa cells [4], the “Ratio of apoptotic Hela cells (of total cells)” value is “less than 15%”. For the same compound, in data set [5], the “Cellular depolymerization of microtubules” value is on record as “able to cause cellular depolymerization of microtubules”; the “Appearance of microtubules after treatment” value is “greatly disrupted and disappeared”. In [3] (setting [6]), the “Extent of compound-induced BimEL” value stood at 58%, the “Extent of compound-induced PARP” value worked out at 84%, the “Extent of compound-induced caspase 3” value was determined as 56% and the “Extent of compound-induced caspase 9” value came to 50%. Besides, the “BimEL level (pro-apoptotic protein)” value in [3] was “significantly increased”. Besides, the IC50 with MCF-7 (setting [7]) worked out at 3.54 ± 0.14 µM. Moreover, in the data set with A549 (Homo sapiens, A549, drug exposure 48 h), the IC50 was 3.72 ± 0.29 µM. Further, in the data set with BGC-823 (setting [8]), the concentration for half-maximal inhibition (IC50) was determined as 3.52 ± 0.23 µM.

For the compound `COc1ccc(NC2c3cc4c(cc3C(c3cc(OC)c(OC)c(OC)c3)C3C(=O)OCC23)OCO4)cc1F` (stereo not drawn) [Compound 19, 4β-NH-(3-fluoro-4-methoxyaniline)-4-deoxy-podophyllotoxin], the “Effect on HeLa cell cycle” value in the data set on HeLa cells [1] is given as “arrested at the G2/M phase”. In the data set on HeLa cells [1] (HeLa), the “Ratio of cell cycle arrest (of total cells)” value was “less than 10%”. Further, in the data set on HeLa cells [1] (HeLa, 5.0 μM, 12 h), the “Percentage of cell cycle arrest (right peak of histogram)” value came out at 83.0%. Besides, the “Total cell cycle arrest percentage (right peak of histogram)” value in the data set on HeLa cells [1] (HeLa, 5.0 μM) is given as 96.2%. In addition, the IC50 in the data set with HeLa came to 0.72 ± 0.08 µM; in the data set with HL-7702, 55.4 ± 0.64 µM; in the data set with MCF-7 (drug exposure 48 h), 2.01 ± 0.21 µM; in the data set on A549 (drug exposure 48 h), 1.76 ± 0.07 µM; in the data set with BGC-823 (drug exposure 48 h), 1.61 ± 0.11 µM. Further, the GI50 in the data set on tubulin (centrifugation assay, ligand 0 to 25 μM, 30 min at 37 °C, read-out: GI50, inhibition of microtubule polymerization (tubulin assembly)) was less than 1 µM. Moreover, the “Inhibition of microtubule polymerization compared with colchicine” value with tubulin is given as “effects higher than colchicine”. Besides, the “Ratio of apoptotic Hela cells (of total cells)” value in the data set with HeLa cells [4] was “less than 15%”. Also, the “Cellular depolymerization of microtubules” value in [5] is given as “able to cause cellular depolymerization of microtubules”. Also, the “Appearance of microtubules after treatment” value in data set [5] is “greatly disrupted and disappeared”. Further, the “BimEL level (pro-apoptotic protein)” value in data set [3] was “significantly increased”.
